According to paper PMC9541285, “Drug‐dependent inhibition of nucleotide hydrolysis in the heterodimeric ABC multidrug transporter PatAB from Streptococcus pneumoniae” (The Febs Journal, 2022):

What was measured:
PatAB (PatA^WTB^WT) [1] = biological target: T1, PatAB (PatA^WTB^WT) (Streptococcus pneumoniae, UniProt A0ACD7PU88+Q8DN70); experiment: ATPase inhibition, malachite green Pi assay; format: biochemical
T1 construct: gene ABC-NP; full length; N-terminal His6-PatA and C-terminal PatB-His10, tags kept; coexpressed in Lactococcus lactis NZ9000 ΔlmrA ΔlmrCD

PatAB (PatA^WTB^WT) [2] = biological target: T2, PatAB (PatA^WTB^WT) (Streptococcus pneumoniae, UniProt A0ACD7PU88+Q8DN70, Q8DN70:Q521A); experiment: biochemical
T2 construct: gene ABC-NP
Text: ATPase inhibition, malachite green Pi assay on PatAB (PatA^WTB^WT)

PatAB (PatA^WTB^WT) [3] = biological target: T1, PatAB (PatA^WTB^WT); experiment: fluorescence anisotropy titration; format: binding
PatAB (PatA^WTB^WT) [4] = biological target: T1, PatAB (PatA^WTB^WT); experiment: competition with EMA photolabelling, in-gel fluorescence; format: binding; settings: 20-fold excess over EMA, membrane vesicles; also transported substrate (efflux from L. lactis cells)
[5] = system: Nc1nc2c(ncn2[C@@H]2O[C@H](COP(=O)(O)OP(=O)(O)OP(=O)(O)O)[C@@H](O)[C@H]2O)c(=O)[nH]1; experiment: GTPase, malachite green Pi assay; format: biochemical, Streptococcus pneumoniae; settings: 10 mM MgCl2, pH 7.0, 30 °C, DDM, no drug

Compound	IC50 (PatAB (PatA^WTB^WT) [1])	IC50 (PatAB (PatA^WTB^WT) [2])	Kd (PatAB (PatA^WTB^WT) [3])	% reduction in EMA incorporation (PatAB (PatA^WTB^WT) [4])	Km [5]
CO[C@@H]1[C@@H](OC(=O)c2ccc(C)[nH]2)[C@@H](O)[C@H](Oc2ccc3c(O)c(NC(=O)c4c[nH]c(C(=O)Nc5c(O)c6ccc(O[C@@H]7OC(C)(C)[C@H](OC)[C@@H](OC(=O)c8ccc(C)[nH]8)[C@H]7O)c(C)c6oc5=O)c4C)c(=O)oc3c2C)OC1(C)C [Coumermycin A1]	3.7 ± 0.4 µM	3 ± 1 µM	–	–	–
CC[n+]1c(-c2ccccc2)c2cc(N)ccc2c2ccc(N)cc21 [Ethidium]	7.1 ± 1.8 µM	6.5 ± 1.7 µM	103 nM	–	–
CO[C@@H]1[C@@H](OC(N)=O)[C@@H](O)[C@H](Oc2ccc3c(O)c(NC(=O)c4ccc(O)c(CC=C(C)C)c4)c(=O)oc3c2C)OC1(C)C [Novobiocin]	4.6 ± 1.7 µM	9.7 ± 2 µM	–	–	–
CC[N+](C)(CC)CCC[n+]1c(-c2ccccc2)c2cc(N)ccc2c2ccc(N)cc21 [Propidium]	0.9 ± 0.6 µM	0.9 ± 0.8 µM	–	–	–
COc1cccc2c1C(=O)c1c(O)c3c(c(O)c1C2=O)C[C@@](O)(C(C)=O)C[C@@H]3O[C@H]1C[C@H](N)[C@H](O)[C@H](C)O1 [daunomycin]	–	–	–	75%	–
PatAB (PatA^WTB^WT) (Streptococcus pneumoniae)	–	–	–	–	1.1 ± 0.4 mM
